{"source": "patent US20250177408A1", "about": "“INHIBITOR OF INTERACTION BETWEEN YAP/TAZ AND TEAD, PREPARATION THEREOF, PHARMACEUTICAL COMPOSITION THEREOF AND USE THEREOF” (ETERN BIOPHARMA (SHANGHAI) CO., LTD., priority 2022, published 2025)", "key": {"[1]": {"tested_on": "MSTO-211H cells", "test": "Cell proliferation inhibition experiment (CellTiter-Glo)", "type": "cell-based", "conditions": "96 hours, read-out: Inhibitory activity of each compound on the proliferation of MSTO-211H cells (grades of IC50 values)", "how_it_was_run": "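MSTO-211H cells (1500/well, RPMI1640 + 10% FBS) were plated overnight at 37° C, 5% CO2, then exposed in duplicate to 9 three-fold compound dilutions (DMSO ≤0.5% final) for 96 hours. Viability was read as CellTiter-Glo luminescence after 10 min at room temperature. IC50 was derived from inhibition of the CTG signal.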"}, "[2]": {"biological_target": "YAP-TEAD protein interaction (His-TEAD1 (209-426) protein, Bio-YAP peptide (60-100)) (Homo sapiens, UniProt P28347)", "sequence (P28347 209-426)": "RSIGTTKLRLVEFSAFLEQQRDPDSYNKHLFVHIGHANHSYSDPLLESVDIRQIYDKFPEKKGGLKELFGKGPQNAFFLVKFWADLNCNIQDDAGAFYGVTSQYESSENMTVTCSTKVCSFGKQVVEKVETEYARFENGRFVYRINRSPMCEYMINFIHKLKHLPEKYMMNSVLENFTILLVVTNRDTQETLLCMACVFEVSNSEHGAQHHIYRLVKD", "test": "YAP-TEAD protein interaction HTRF experiment", "type": "binding", "conditions": "His-TEAD1 (209-426) 10 nM, Bio-YAP peptide 50 nM, read-out: Activity of each compound in blocking YAP-TEAD protein interaction (grades of IC50 values)", "how_it_was_run": "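His-TEAD1 (209-426) at 10 nM final was preincubated 20 min at RT with compounds (10-point 3-fold dilutions, duplicates, 1% DMSO), then Bio-YAP peptide, 10 min. Anti-His-Eu cryptate/streptavidin-XL665 added for 1 h at RT; HTRF read at ex 320 nm, Em665/Em620 ratio ×10000, IC50 from % inhibition.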"}}, "note": "Where two headings read alike, the source gives them in different places."}
{"compound": "(S)-8-((S)-5-Chloro-6-fluoro-2-phenyl-2-((S)-pyrrolidin-2-yl)-2,3-dihydrobenzofuran-4-yl)-9-fluoro-3-methyl-4-oxo-3,4-dihydrobenzo[5,6][1,4]dioxo[2,3-d]pyrimidine-7-carboxamide [Compound 127]", "values": [{"measurement": "IC50", "setting": "[1]", "value": "200 to 500", "unit": "nM"}, {"measurement": "IC50", "setting": "[2]", "value": "< 50", "unit": "nM"}]}
{"compound": "NC(=O)c1cc2c(c(F)c1-c1c(Cl)c(F)cc3c1C[C@](c1ccccc1)([C@@H]1CCCN1)O3)Oc1c(cnn(C3CC3)c1=O)O2", "note": "[Compound 111, (S)-8-((S)-5-Chloro-6-fluoro-2-phenyl-2-((S)-pyrrolidin-2-yl)-2,3-dihydrobenzofuran-4-yl)-2-cyclopropyl-9-fluoro-1-oxo-1,2-dihydrobenzo[5,6][1,4]dioxo[2,3-d]pyridazine-7-carboxamide]", "values": [{"measurement": "IC50", "setting": "[1]", "value": "< 200", "unit": "nM"}, {"measurement": "IC50", "setting": "[2]", "value": "< 50", "unit": "nM"}]}
{"compound": "CCn1ncc2c(c1=O)Oc1cc(C(N)=O)c(-c3c(Cl)c(F)cc4c3C[C@](c3ccccc3)([C@@H]3CCCN3)O4)c(F)c1O2", "note": "(atropisomer, axis not shown) [Compound 110, (S)-8-((S)-5-Chloro-6-fluoro-2-phenyl-2-((S)-pyrrolidin-2-yl)-2,3-dihydrobenzofuran-4-yl)-3-ethyl-9-fluoro-4-oxo-3,4-dihydrobenzo[5,6][1,4]dioxo [2,3-d]pyridazine-7-carboxamide]", "values": [{"measurement": "IC50", "setting": "[1]; Homo sapiens", "value": "200 to 500", "unit": "nM"}, {"measurement": "IC50", "setting": "[2]", "value": "< 50", "unit": "nM"}]}
{"compound": "NC(=O)c1cc2c(c(F)c1-c1c(Cl)c(F)cc3c1C[C@](c1ccccc1)([C@@H]1CCCN1)O3)Oc1ncc(CO)nc1O2", "note": "(atropisomer, axis not shown) [Compound 102, (S)-8-((S)-5-Chloro-6-fluoro-2-phenyl-2-((S)-pyrrolidin-2-yl)-2,3-dihydrobenzofuran-4-yl)-9-fluoro-3-(hydroxymethyl)benzo[5,6] [1,4]dioxo [2,3-b]pyrazine-7-carboxamide]", "values": [{"measurement": "IC50", "setting": "[1]; Homo sapiens", "value": "< 200", "unit": "nM"}, {"measurement": "IC50", "setting": "[2]", "value": "< 50", "unit": "nM"}]}
{"compound": "NC(=O)c1cc2c(c(F)c1-c1c(Cl)c(F)cc3c1C[C@](c1ccccc1)([C@@H]1CCCN1)O3)OCc1nccnc1-2", "note": "(atropisomer, axis not shown) [Compound 6, (S)-8-((S)-5-Chloro-6-fluoro-2-phenyl-2-((S)-pyrrolidin-2-yl)-2,3-dihydrobenzofuran-4-yl)-7-fluoro-5H-chromeno[3,4-b]pyrazine-9-carboxamide]", "values": [{"measurement": "IC50", "setting": "[1]; Homo sapiens", "value": "< 200", "unit": "nM"}, {"measurement": "IC50", "setting": "[2]", "value": "< 50", "unit": "nM"}]}
{"compound": "NC(=O)c1cc2c(c(F)c1-c1c(Cl)c(F)cc3c1C[C@](c1ccccc1)([C@@H]1CCCN1)O3)Oc1ncccc1C2O", "note": "(stereo partly drawn) [Compound 104, (S)-8-((S)-5-Chloro-6-fluoro-2-phenyl-2-((S)-pyrrolidin-2-yl)-2,3-dihydrobenzofuran-4-yl)-9-fluoro-5-hydroxy-5H-benzo[2,3-b]pyridine-7-carboxamide]", "values": [{"measurement": "IC50", "setting": "[1]; Homo sapiens", "value": "200 to 500", "unit": "nM"}, {"measurement": "IC50", "setting": "[2]", "value": "< 50", "unit": "nM"}]}
{"compound": "Cn1cc2c(n1)COc1c-2cc(C#N)c(-c2c(Cl)c(F)cc3c2C[C@](c2ccccc2)([C@@H]2CCCN2)O3)c1F", "note": "(atropisomer, axis not shown) [Compound 2, (S)-7-((S)-5-Chloro-6-fluoro-2-phenyl-2-((S)-pyrrolidin-2-yl)-2,3-dihydrobenzofuran-4-yl)-6-fluoro-2-methyl-2,4-dihydrochromeno[3,4-c]pyrazole-8-carbonitrile]", "values": [{"measurement": "IC50", "setting": "[1]; Homo sapiens", "value": "200 to 500", "unit": "nM"}, {"measurement": "IC50", "setting": "[2]", "value": "< 50", "unit": "nM"}]}
{"compound": "CNC(=O)c1cc2c(c(F)c1-c1c(Cl)c(F)cc3c1C[C@](c1ccccc1)([C@@H]1CCCN1)O3)Oc1c(cnn(CCC(F)(F)F)c1=O)O2", "note": "(atropisomer, axis not shown) [Compound 142, (R)-8-((S)-5-Chloro-6-fluoro-2-phenyl-2-((S)-pyrrolidin-2-yl)-2,3-dihydrobenzofuran-4-yl)-9-fluoro-N-methyl-1-oxo-2-(3,3,3-trifluoropropyl)-1,2-dihydrobenzo[5,6][1,4]dioxa[2,3-d]pyridazine-7-carboxamide]", "values": [{"measurement": "IC50", "setting": "[1]; Homo sapiens", "value": "< 200", "unit": "nM"}, {"measurement": "IC50", "setting": "[2]", "value": "< 50", "unit": "nM"}]}
{"compound": "NC(=O)c1cc2c(c(F)c1-c1c(Cl)c(F)cc3c1C[C@](c1ccccc1)([C@@H]1CCCN1)O3)Oc1cnn(CCC(F)(F)F)c(=O)c1O2", "note": "(atropisomer, axis not shown) [Compound 134, (S)-8-((S)-5-Chloro-6-fluoro-2-phenyl-2-((S)-pyrrolidin-2-yl)-2,3-dihydrobenzofuran-4-yl)-9-fluoro-3-(3,3,3-trifluoropropyl)-4-oxo-3,4-dihydrobenzo[5,6][1,4]dioxo[2,3-d]pyridazine-7-carboxamide]", "values": [{"measurement": "IC50", "setting": "[1]; Homo sapiens", "value": "500 to 5000", "unit": "nM"}, {"measurement": "IC50", "setting": "[2]", "value": "< 50", "unit": "nM"}]}
{"compound": "[2H]C1([2H])CC[C@]([2H])([C@@]2(c3ccccc3)Cc3c(cc(F)c(Cl)c3-c3c(C(N)=O)cc4c(c3F)Oc3c(cnn(CC(F)F)c3=O)O4)O2)N1", "note": "(atropisomer, axis not shown) [Compound 152, (S)-8-((S)-5-Chloro-6-fluoro-2-phenyl-2-((S)-pyrrolidin-2-yl-2,5,5-d3)-2,3-dihydrobenzofuran-4-yl)-2-(2,2-difluoroethyl)-9-fluoro-1-oxo-1,2-dihydrobenzo [5,6][1,4]dioxo [2,3-d]pyridazine-7-carboxamide]", "values": [{"measurement": "IC50", "setting": "[1]; Homo sapiens", "value": "< 200", "unit": "nM"}, {"measurement": "IC50", "setting": "[2]", "value": "< 50", "unit": "nM"}]}
{"compound": "NC(=O)c1cc2c(c(F)c1-c1c(Cl)c(F)cc3c1C[C@](c1ccccc1)([C@@H]1CCCN1)O3)Oc1c(cnn(CC(F)(F)F)c1=O)O2", "note": "(atropisomer, axis not shown) [Compound 143, (S)-8-((S)-5-Chloro-6-fluoro-2-phenyl-2-((S)-pyrrolidin-2-yl)-2,3-dihydrobenzofuran-4-yl)-9-fluoro-1-oxo-2-(2,2,2-trifluoroethyl)-1,2-dihydroxybenzo[5,6][1,4]dioxo[2,3-d]pyridazine-7-carboxamide]", "values": [{"measurement": "IC50", "setting": "[1]; Homo sapiens", "value": "< 200", "unit": "nM"}, {"measurement": "IC50", "setting": "[2]", "value": "< 50", "unit": "nM"}]}
{"compound": "NC(=O)c1cc2c(c(F)c1-c1c(Cl)c(F)cc3c1C[C@](c1ccccc1)([C@@H]1CCCN1)O3)Oc1cnn(CCF)c(=O)c1O2", "note": "(atropisomer, axis not shown) [Compound 119, (S)-8-((S)-5-Chloro-6-fluoro-2-phenyl-2-((S)-pyrrolidin-2-yl)-2,3-dihydrobenzofuran-4-yl)-9-fluoro-3-(2-fluoroethyl)-4-oxo-3,4-dihydrobenzo[5,6][1,4]dioxo[2,3-d]pyridazine-7-carboxamide]", "values": [{"measurement": "IC50", "setting": "[1]; Homo sapiens", "value": "200 to 500", "unit": "nM"}, {"measurement": "IC50", "setting": "[2]", "value": "< 50", "unit": "nM"}]}
{"compound": "CO[C@H]1CC[C@H](NC[C@@]2(c3ccccc3)Cc3c(cc(F)c(Cl)c3-c3c(C(N)=O)cc4c(c3F)OCc3nn(C)cc3-4)O2)CC1", "note": "(atropisomer, axis not shown) [Compound 78, (S)-7-((S)-5-Chloro-6-fluoro-2-((((1R,4S)-4-methoxycyclohexyl)amino)methyl)-2-phenyl-2,3-dihydrobenzofuran-4-yl)-6-fluoro-2-methyl-2,4-dihydrochromeno[3,4-c]pyrazole-8-carboxamide]", "values": [{"measurement": "IC50", "setting": "[1]; Homo sapiens", "value": "< 200", "unit": "nM"}, {"measurement": "IC50", "setting": "[2]", "value": "< 50", "unit": "nM"}]}
{"compound": "Cn1nc2c(cc1=O)Oc1cc(C(N)=O)c(-c3c(Cl)c(F)cc4c3C[C@](c3ccccc3)([C@@H]3CCCN3)O4)c(F)c1O2", "note": "(atropisomer, axis not shown) [Compound 122, (S)-8-((S)-5-Chloro-6-fluoro-2-phenyl-2-((S)-pyrrolidin-2-yl)-2,3-dihydrobenzofuran-4-yl)-9-fluoro-2-methyl-3-oxo-2,3-trihydrobenzo [5,6][1,4]dioxo [2,3-c]pyridazine-7-carboxamide]", "values": [{"measurement": "IC50", "setting": "[1]; Homo sapiens", "value": "< 200", "unit": "nM"}, {"measurement": "IC50", "setting": "[2]", "value": "< 50", "unit": "nM"}]}
{"compound": "[2H]C1([2H])CC[C@]([2H])([C@@]2(c3ccccc3)Cc3c(cc(F)c(Cl)c3-c3c(C(=O)NC)cc4c(c3F)Oc3c(cnn(C5CC(F)(F)C5)c3=O)O4)O2)N1", "note": "(atropisomer, axis not shown) [Compound 158, (S)-8-((S)-5-Chloro-6-fluoro-2-phenyl-2-((S)-pyrrolidin-2-yl-2,5,5-d3)-2,3-dihydrobenzofuran-4-yl)-2-(3,3-difluorocyclobutyl)-9-fluoro-N-methyl-1-oxo-1,2-dihydrobenzo[5,6][1,4]dioxo [2,3-d]pyridazine-7-carboxamide]", "values": [{"measurement": "IC50", "setting": "[1]; Homo sapiens", "value": "< 200", "unit": "nM"}, {"measurement": "IC50", "setting": "[2]", "value": "< 50", "unit": "nM"}]}
{"compound": "NC(=O)c1cc2c(c(F)c1-c1c(Cl)c(F)cc3c1C[C@](c1ccccc1)([C@@H]1CCCN1)O3)Oc1cnncc1O2", "note": "(atropisomer, axis not shown) [Compound 67, (S)-8-((S)-5-Chloro-6-fluoro-2-phenyl-2-((S)-pyrrolidin-2-yl)-2,3-dihydrobenzofuran-4-yl)-9-fluorobenzo[5,6][1,4]dioxo[2,3-d]pyridazine-7-carboxamide]", "values": [{"measurement": "IC50", "setting": "[1]; Homo sapiens", "value": "200 to 500", "unit": "nM"}, {"measurement": "IC50", "setting": "[2]", "value": "< 50", "unit": "nM"}]}
{"compound": "NC(=O)c1cc2c(c(F)c1-c1c(Cl)c(F)cc3c1C[C@](c1ccccc1)([C@@H]1CCCN1)O3)OCC1(CC1)O2", "note": "(atropisomer, axis not shown) [Compound 5, (S)-6-((S)-5-Chloro-6-fluoro-2-phenyl-2-((S)-pyrrolidin-2-yl)-2,3-dihydrobenzofuran-4-yl)-5-fluoro-3H-spiro[benzo[b][1,4]dioxoine-2, l'-cyclopropane]-7-carboxamide]", "values": [{"measurement": "IC50", "setting": "[1]; Homo sapiens", "value": "< 200", "unit": "nM"}, {"measurement": "IC50", "setting": "[2]", "value": "< 50", "unit": "nM"}]}
{"compound": "NC(=O)c1cc2c(c(F)c1-c1c(Cl)c(F)cc3c1C[C@](c1ccccc1)([C@@H]1CCCN1)O3)Oc1c(cnn(CCC(F)(F)F)c1=O)O2", "note": "(atropisomer, axis not shown) [Compound 133, (S)-8-((S)-5-Chloro-6-fluoro-2-phenyl-2-((S)-pyrrolidin-2-yl)-2,3-dihydrobenzofuran-4-yl)-9-fluoro-2-(3,3,3-trifluoropropyl)-1-oxo-1,2-dihydrobenzo[5,6][1,4]dioxo[2,3-d]pyridazine-7-carboxamide]", "values": [{"measurement": "IC50", "setting": "[1]; Homo sapiens", "value": "< 200", "unit": "nM"}, {"measurement": "IC50", "setting": "[2]", "value": "< 50", "unit": "nM"}]}
